Assay results taken from US20180153830A1, “SELECTIVE INHIBITORS OF UNDIFFERENTIATED CELLS” (Yissum Research Development Company of the Hebrew …, priority 2012, published 2018).
Where a name gives a salt, the structure may show the parent alone. Peptide text beside a SMILES is read from it. * marks the point of attachment. Cbz = O=C(OCc1ccccc1)*; CH2F = FC*

What was measured:
[1] = hPSC viability after SCD1 inhibitors with or without oleic acid; assay type: cell-based, human; settings: human, human pluripotent stem cells (hPSCs), 75 nM, read-out: decrease in viability of hPSCs
Description: (§1) In order to determine whether hPSC viability indeed depends on functional SCD1 activity, hPSCs were exposed to 75 nM of the specific SCD1 inhibitors A939572 and CAY-10566 for 48 hours. Some samples were supplemented with 100 μM oleic acid in order to evaluate the effect of exogenous supplementation of oleic acid (a product of SCD1 activity) on cell death.

hPSCs = experiment: as above; assay type: cell-based, human; settings: 75 nM inhibitor, 100 μM oleic acid, 48 hours
Description: as §1

[2] = test system: human embryonic stem cells; experiment: Pancaspase inhibitor effect on PluriSIn #1-induced cell death; assay type: cell-based; settings: 25 μM or 100 μM, 1 hour before 20 μM PluriSIn #1; 24 hours
Description: The effect of the pancaspase inhibitor Z-VAD-FMK on PluriSIn #1-induced cell death was also examined. Cells were treated with 25 μM or 100 μM of Z-VAD-FMK, and 1 hour later PluriSIn #1 (20 μM) was added to the medium. After 24 hours, the cultures were subjected to cell viability measurements, as described hereinabove.

[3] = test system: human pluripotent stem cells (hPSCs); experiment: Pilot cytotoxicity screen with 50 commercially available compounds; assay type: cell-based; settings: within 24 hours
Description: (§2) The CellTiter-Glo® luminescent cell viability assay (Promega, Madison, Wis.) was implemented as a high-throughput screening (HTS) assay for a chemical library screen in a 384-well format. After the DMSO tolerance of the assay was assessed, and the optimal cell numbers were determined for each cell type, a pilot screen was performed with the following 50 commercially available compounds:
(§3) 3-acetamidophenol, 4-acetamidophenol, 6-methylcoumarin, acetaminophen, acetazolamide, actidione, amantadine hydrochloride, aminosalicylic acid, amodiaquine, amsacrine hydrochloride, aztreonam, caffeine, carboplatin, cefamandole sodium, cholic acid, ciprofloxacin, clozapine, coumarin, crotaline, diflunisal, dopamine, doxycycline, erythromycin, estradiol, famotidine, fenofibrate, fludrocortisone acetate, gentamicin, imipramine, isoniazid, isoproterenol, kanamycin, ketoconazole, L-thyroxine, mefenamic acid, nadolol, naibuphine hydrochloride hydrate, nizatidine, norepinephrine, phenobarbital, quinine hydrochloride, salicylate, sodium 2-mercapto-ethanesulfonate, sulfasalazine, sulindac, tetracycline, tetraethylthiarum disulfide, timolol maleate, valproic acid sodium, and WY-14643.
(§4) A pilot screen was then performed with 50 commercially-available compounds (as described in the Materials and Methods section hereinabove), which were randomly selected from a bank of known cytotoxic compounds. […]

[4] = test system: human embryonic stem cells; experiment: Oleic acid rescue assay; assay type: cell-based; settings: 20 μM PluriSIn (2 μM amsacrine); up to 100 μM BSA-OA
Description: Human embryonic stem cells were cultured without feeder cells in CELLSTAR® 24-well tissue culture plates (Greiner Bio-One) pre-coated with Matrigel™, using mTeSR1 defined medium. […] After 24 hours, the cells were subjected to microscopy imaging and to cell viability measurements.
In order to further investigate the effect of SCD activity on hPSC viability, the ability of exogenous supplementation of oleic acid (the direct product of SCD1) to rescue cells from PluriSIn-induced apoptosis was further studied, using procedures described in the Materials and Methods section. Cells were exposed to PluriSn #1 in the presence of increasing concentrations of BSA-conjugated oleic acid (BSA-OA).
For comparison, cells were exposed to 20 μM of PluriSIn #1, #2, #3 and #6 in the presence of 100 μM BSA-OA.

[5] = Pilot cytotoxicity screen with 50 commercially available compounds; assay type: cell-based, human; settings: human; after 24 hours, at a concentration of 1-3 μM; read-out: decrease in cell viability
Description: as §2, §3, §4

[6] = test system: embryonic stem cells and differentiated cells (human fibroblasts); experiment: Cytotoxicity of ER stress inducer and protein synthesis inhibitor with or without oleic acid

Structure (SMILES): Cc1nnc(-c2ccc(N3CCC(Oc4cc(F)ccc4Cl)CC3)nn2)o1 [CAY-10566, 3-[4-(2-chloro-5-fluorophenoxy)-1-piperidinyl]-6-(5-methyl-1,3,4-oxadiazol-2-yl)-pyridazine]
- cytotoxicity at 48 h, 75 nM [1]: > 80%
- rescue from SCD1 inhibitor-induced cell death by oleic acid (hPSCs): completely rescued

Structure (SMILES): COC(=O)C[C@H](NC(=O)[C@H](C)NC(=O)[C@@H](NC(=O)OCc1ccccc1)C(C)C)C(=O)CF [Z-VAD-FMK] (Cbz-Val-Ala-Asp(OMe)-CH2F)
- suppression of PluriSIn #1-induced cell death [2]: significant suppressed PluriSIn #1-induced cell death

Structure (SMILES): COc1cc(NS(C)(=O)=O)ccc1Nc1c2ccccc2nc2ccccc12 [amsacrine hydrochloride, reference compound]
- cell killing [3]: killed almost all cells
- protection by BSA-conjugated oleic acid (BSA-OA) against cell death induced by the compound [4]: did not protect

Structure (SMILES): C[C@@H]1C[C@@H]([C@H](O)CC2CC(=O)NC(=O)C2)C(=O)[C@@H](C)C1 [cycloheximide]
- cytotoxicity at 24 h [5]: ~50%
- protection by oleic acid against the compound's cytotoxicity ([6]; 100 μM oleic acid): does not protect
- cytotoxicity towards embryonic stem cells and differentiated cells ([6]; 1 mM dithiothreitol or 10 μM cycloheximide, 48 hours): cytotoxic towards both embryonic stem cells and differentiated cells
